Laboratory results taken from patent US6635250B2, “Use of certain metalloproteinase inhibitors for treating nerve disorders mediated by nucleus pulpsus” (A+ Science AB (publ), priority 1998, dated 2003).

How the values were obtained:
[1] = tested on: inducible nitrogen oxide synthetase; conditions: cited from earlier work
nerve roots = conditions: cited from earlier work
[2] = tested on: sacrococcygeal cauda equina; assay: Series-3: nerve root conduction velocity seven days after autologous nucleus pulposus application; type: in vivo; conditions: pig, systemic treatment
Procedure: Series-3: Thirteen pigs had autologous nucleus pulposus placed onto their sacrococcygeal cauda equina similar to series-2. Five pigs (bodyweight 25 kg) received REMICADE® (infliximab) 100 mg i.v. preoperatively, and 8 pigs received ENBREL® (etanercept) 12.5 mg s.c. preoperatively and additionally 12.5 mg s.c. three days after the operation. Seven days after the nucleus pulposus-application the nerve root conduction velocity was determined over the application zone by local electrical stimulation according to series-2. Series-3: Thirteen pigs had autologous nucleus pulposus placed onto their sacrococcygeal cauda equina similar to series-2. […] Seven days after the nucleus pulposus-application the nerve root conduction velocity was determined over the application zone by local electrical stimulation according to series-2. […] The statistical difference between the groups, infliximab, and etanercept, nucleus pulposus without treatment (positive control from previous data) and application of retroperitoneal fat (negative control from previous data) was assessed by using ANOVA and Fisher's PLSD at 5%.

| Molecule | block of nucleus pulposus-related effects (nerve roots) | block of nucleus pulposus induced nerve injury (nerve conduction velocity) [2] | also measured |
| --- | --- | --- | --- |
| N=C(N)NN [Aminoguanidine] | – | – | inhibition of release of nitrogen oxide (NO) at nerve root injuries [1]: inhibit the release of nitrogen oxide (NO) |
| COc1ccc2c(c1)c(CC(=O)O)c(C)n2C(=O)c1ccc(Cl)cc1 [indomethacin] | slightly less efficiently | – | – |
| CCN(CC)CC(=O)Nc1c(C)cccc1C [lidocaine] | slightly less efficiently | – | – |
| etanercept [EMBREL ®] | – | blocked the nucleus pulposus induced nerve injury efficiently | – |
| infliximab [REMICADE ®] | – | blocked the nucleus pulposus induced nerve injury efficiently | – |
